Test results taken from patent US20240050522A1, “COMPOSITIONS AND METHODS FOR PREVENTING, ATTENUATING, AND TREATING MEDICAL CONDITIONS WITH sHDL NANOPARTICLES” (The Regents of the University of Michigan, priority 2020, published 2024).

Tests used:
[1] = phospholipid alone, not complexed with 22A; cited from earlier work
SARS-CoV = details: via reduced or relocated ACE-2 receptors; cited from earlier work
[2] = system: endotoxemia mice (5 mg/kg LPS); details: 100 mg/kg; cited from earlier work
endotoxemia rats = details: cited from earlier work
[3] = Diameter of 22A-phospholipid sHDL complexes by DLS; assay type: physicochemical; details: volume intensity average
Description: The quality of resulting sHDL complexes were analyzed by following analytical techniques. The purity of sHDL complexes were determined by gel permeation chromatography (GPC), with UV detection at 220 nm, using a Tosoh TSK gel G3000SWxl column (Tosoh Bioscience, King of Prussia, PA). The sHDL diameters were determined by dynamic light scattering (DLS), using a Zetasizer Nano ZSP (Malvern Instruments, Westborough, MA) and the volume intensity average values were reported. Transition temperature of sHDL complexes were analyzed by differential scanning calorimetry (DSC) using Nano DSC (TA Instruments, New Castle, DE).

[4] = system: NF-κB reporter, human TLR4 (HEK-Blue cells); assay: LPS-induced NF-κB expression in HEK-Blue cells (Example X); assay type: cell-based; details: 0.1 mg/ml, LPS 2 ng/ml, 18 h
Description: FIG. 29A-I: sHDL complexes inhibit LPS-induced NF-κB activation in a lipid component and concentration dependent. HEK-Blue system was used to analyze neutralization of the LPS-induced inflammatory response. HEK-Blue cells were co-stimulated with 0.01, 0.03, and 0.1 mg/ml sHDL and 2 ng/ml LPS and incubated for 18 h. The activation of NF-κB reporter was quantified by measuring absorption at 650 nm (A-H). sHDL at 0.03 mg/ml were treated in presence of 2 ng/ml LPS and the activation of NF-κB reporter was quantified by measuring absorption at 650 nm (I).
The HEK-Blue cell system (InvivoGen) was used to analyze neutralization of the LPS-induced inflammatory response. HEK-Blue cells stably express reporter-linked human TLR4, CD14, MD2, and a NF-κB and are designed for studying the stimulation of human TLR4. Briefly, HEK-Blue cells were cultured in Dulbecco's Modified Eagle's Medium (DMEM) containing 10% low endotoxin fetal bovine serum (FBS) and selective antibiotics according to the manufacturer's instructions (InvivoGen). Growth medium was discarded and cells were resuspended in HEK-Blue Detection medium. Cells were seeded at 25,000 cells per well. The cells were treated with sHDL at 0.01, 0.03, or 0.1 mg/ml and 2 ng/ml of LPS. […] The blue color was quantified by measuring absorption at 650 nm using a SpectraMax M3 plate reader (Molecular Devices, Sunnyvale, CA).

CCCCCCCCCCCCCCCC(=O)OC[C@H](COP(=O)([O-])OCC[N+](C)(C)C)OC(=O)CCCCCCCCCCCCCCC [DPPC, 1,2-dipalmitoyl-sn-glycero-3-phosphatidylcholine]
Tm of phospholipid [1]: 41.6 °C

CCCCCCCCCCCCCCCCCC(=O)OC[C@H](COP(=O)([O-])OCC[N+](C)(C)C)OC(=O)CCCCCCCCCCCCCCCCC [DSPC, 1,2-distearoyl-sn-glycero-3-phosphatidylcholine]
Tm of phospholipid [1]: 54.5 °C

CCCCCCCC/C=C\CCCCCCCC(=O)O[C@H](COC(=O)CCCCCCCCCCCCCCC)COP(=O)([O-])OCC[N+](C)(C)C [POPC, 1-palmitoyl-2-oleoyl-phosphatidylcholine]
Tm of phospholipid [1]: −3.3±0.5 °C

methyl-β-cyclodextrin [MβCD]
SARS-CoV cell entry (SARS-CoV): inhibited

apoA-I: apolipoprotein A-I
mortality [2]: significantly lowered | plasma TNF-α (endotoxemia rats; 10 mg/kg 2 h post-LPS injection (1 mg/kg LPS)): reduce | survival rate (endotoxemia rats; 10 mg/kg, endotoxemia rats (5 mg/kg)): increased

CCCCCCCCCCCCCC(=O)OC[C@H](COP(=O)([O-])OCC[N+](C)(C)C)OC(=O)CCCCCCCCCCCCC [DMPC, 1,2-dimyristoyl-sn-glycero-3-phosphatidylcholine]
Tm of phospholipid [1]: 24.5 °C

PVLDLFRELLNELLEALKQKLK (SEQ ID NO: 4) [22A peptide]
Size (nm) [3]: 4.49 nm | Size (nm) ([3]; listed as 22A PEPTIDE): 4.488 nm | activation of NF-kB [4]: suppressed
